Where two headings read alike, the source gives them in different places.
Test system: 134 cancer cell lines
Test: Cell viability assay (ATPlite, 72 hours), IC50 on cancer cell line panel

COC(=O)N[C@@H](C)CNc1nccc(-c2cn(C(C)C)nc2-c2cc(Cl)cc(NS(C)(=O)=O)c2F)n1 [encorafenib]
IC50 (HEC-6, read-out: IC50 in cell proliferation assay, HEC-6 cell line (EGFR p.A289V)): 1240 nM
IC50 (Homo sapiens, 769-P, read-out: IC50 in cell proliferation assay, cell line 769-P): 1190 nM
IC50 (Homo sapiens, 786-0, read-out: IC50 in cell proliferation assay, cell line 786-O): 1390 nM
IC50 (Homo sapiens, A 172, read-out: IC50 in cell proliferation assay, cell line A-172): 1780 nM
IC50 (Homo sapiens, A204, read-out: IC50 in cell proliferation assay, cell line A-204): 1050 nM
IC50 (Homo sapiens, A498, read-out: IC50 in cell proliferation assay, cell line A-498): 527 nM
IC50 (Homo sapiens, A549, read-out: IC50 in cell proliferation assay, cell line A-549): 1220 nM
IC50 (Homo sapiens, A704, read-out: IC50 in cell proliferation assay, cell line A-704): 5460 nM
IC50 (Homo sapiens, A-375, read-out: IC50 in cell proliferation assay, cell line A-375 (BRAF p.V600E)): 9 nM
IC50 (Homo sapiens, A-427, read-out: IC50 in cell proliferation assay, cell line A-427): 840 nM
IC50 (Homo sapiens, ACHN, read-out: IC50 in cell proliferation assay, cell line ACHN): 624 nM
IC50 (Homo sapiens, AN3-CA, read-out: IC50 in cell proliferation assay, cell line AN3-CA (FGFR2 p.N549K)): 623 nM
IC50 (Homo sapiens, ASPC1, read-out: IC50 in cell proliferation assay, cell line AsPC-1): 2880 nM
IC50 (Homo sapiens, AU565, read-out: IC50 in cell proliferation assay, cell line AU565 (ERBB2 amplification)): 421 nM
IC50 (Homo sapiens, BT-20, read-out: IC50 in cell proliferation assay, cell line BT-20): > 31600 nM
IC50 (Homo sapiens, BT-474, read-out: IC50 in cell proliferation assay, cell line BT-474 (ERBB2 amplification)): > 31600 nM
IC50 (Homo sapiens, BT-549, read-out: IC50 in cell proliferation assay, cell line BT-549): 1020 nM
IC50 (Homo sapiens, BXPC-3, read-out: IC50 in cell proliferation assay, cell line BxPC-3): 408 nM
IC50 (Homo sapiens, C-33-A, read-out: IC50 in cell proliferation assay, cell line C-33 A): 922 nM
IC50 (Homo sapiens, CAL-27, read-out: IC50 in cell proliferation assay, cell line CAL-27): 6980 nM
IC50 (Homo sapiens, CCF-STTG1, read-out: IC50 in cell proliferation assay, cell line CCF-STTG1): > 31600 nM
IC50 (Homo sapiens, CCRF-CEM, read-out: IC50 in cell proliferation assay, cell line CCRF-CEM): > 31600 nM
IC50 (Homo sapiens, COLO 205, read-out: IC50 in cell proliferation assay, cell line COLO 205 (BRAF p.V600E)): 3.32 nM
IC50 (Homo sapiens, COLO-829, read-out: IC50 in cell proliferation assay, cell line COLO 829 (BRAF p.V600E)): 9 nM
IC50 (Homo sapiens, DLD-1, read-out: IC50 in cell proliferation assay, cell line DLD-1): 1650 nM
IC50 (Homo sapiens, DU-4475, read-out: IC50 in cell proliferation assay, cell line DU4475 (BRAF p.V600E)): 8 nM
IC50 (Homo sapiens, Daoy, read-out: IC50 in cell proliferation assay, cell line Daoy): > 31600 nM
IC50 (Homo sapiens, DoTc2-4510, read-out: IC50 in cell proliferation assay, cell line DoTc2 4510): 3280 nM
IC50 (Homo sapiens, EOL1, read-out: IC50 in cell proliferation assay, cell line EoL-1 (FIP1L1-PDGFRA)): 2340 nM
IC50 (Homo sapiens, FaDu, read-out: IC50 in cell proliferation assay, cell line FaDu): 964 nM
IC50 (Homo sapiens, G-361, read-out: IC50 in cell proliferation assay, cell line G-361 (BRAF p.V600E)): 13 nM
IC50 (Homo sapiens, HCC827, read-out: IC50 in cell proliferation assay, cell line HCC827 (EGFR exon19del)): 893 nM
IC50 (Homo sapiens, HCC4006, read-out: IC50 in cell proliferation assay, cell line HCC4006 (EGFR exon19del)): > 31600 nM
IC50 (Homo sapiens, HCT-15, read-out: IC50 in cell proliferation assay, cell line HCT 15): 2940 nM
IC50 (Homo sapiens, HCT-116, read-out: IC50 in cell proliferation assay, cell line HCT 116): 1150 nM
IC50 (Homo sapiens, HEC-1, read-out: IC50 in cell proliferation assay, HEC-1 cell line): 1570 nM
IC50 (Homo sapiens, HEC-1B, read-out: IC50 in cell proliferation assay, HEC-1-B cell line (EGFR p.A864V)): 2100 nM
IC50 (Homo sapiens, HL-60, read-out: IC50 in cell proliferation assay, HL-60 cell line): 1800 nM
IC50 (Homo sapiens, HT, read-out: IC50 in cell proliferation assay, HT cell line): > 31600 nM
IC50 (Homo sapiens, HT-1080, read-out: IC50 in cell proliferation assay, HT-1080 cell line): 381 nM
IC50 (Homo sapiens, Hs746T, read-out: IC50 in cell proliferation assay, Hs 746.T cell line (MET exon14skip + amplification)): 1120 nM
IC50 (Homo sapiens, Hs-578T, read-out: IC50 in cell proliferation assay, Hs 578T cell line): 1030 nM
IC50 (Homo sapiens, HuTu80, read-out: IC50 in cell proliferation assay, HuTu 80 cell line): 1120 nM
IC50 (Homo sapiens, J82, read-out: IC50 in cell proliferation assay, J82 cell line): 949 nM
IC50 (Homo sapiens, Jurkat E6.1, read-out: IC50 in cell proliferation assay, Jurkat E6.1 cell line): 1040 nM
IC50 (Homo sapiens, K562, read-out: IC50 in cell proliferation assay, K-562 cell line): 27600 nM
IC50 (Homo sapiens, KATO III, read-out: IC50 in cell proliferation assay, KATO III cell line (FGFR2 amplification)): 1510 nM
IC50 (Homo sapiens, KG-1, read-out: IC50 in cell proliferation assay, KG-1 cell line (FGFR1OP2-FGFR1)): 1440 nM
IC50 (Homo sapiens, KLE, read-out: IC50 in cell proliferation assay, KLE cell line): 822 nM
IC50 (Homo sapiens, KMS-11, read-out: IC50 in cell proliferation assay, KMS-11 cell line (FGFR3 p.Y373C)): 3390 nM
IC50 (Homo sapiens, KU812, read-out: IC50 in cell proliferation assay, Ku812 cell line): 2570 nM
IC50 (Homo sapiens, Kasumi 1, read-out: IC50 in cell proliferation assay, Kasumi-1 cell line (KIT p.N822K)): 3020 nM
IC50 (Homo sapiens, LC-2-ad, read-out: IC50 in cell proliferation assay, LC-2/ad cell line (CCDC6-RET)): 1530 nM
IC50 (Homo sapiens, LNCaP-Clone-FGC, read-out: IC50 in cell proliferation assay, LNCaP clone FGC cell line): 2150 nM
IC50 (Homo sapiens, LS174T, read-out: IC50 in cell proliferation assay, LS174T cell line): 1700 nM
IC50 (Homo sapiens, LS-411N, read-out: IC50 in cell proliferation assay, LS411N cell line (BRAF p.V600E)): 6 nM
IC50 (Homo sapiens, LoVo, read-out: IC50 in cell proliferation assay, LoVo cell line): 2500 nM
IC50 (Homo sapiens, MCF7, read-out: IC50 in cell proliferation assay, MCF-7 cell line): > 31600 nM
IC50 (Homo sapiens, MDA-MB-231, read-out: IC50 in cell proliferation assay, MDA-MB-231 cell line): 2420 nM
IC50 (Homo sapiens, MDA-MB-453, read-out: IC50 in cell proliferation assay, MDA-MB-453 cell line): > 31600 nM
IC50 (Homo sapiens, MDA-MB-468, read-out: IC50 in cell proliferation assay, MDA-MB-468 cell line): > 31600 nM
IC50 (Homo sapiens, MG-63, read-out: IC50 in cell proliferation assay, MG-63 cell line): > 31600 nM
IC50 (Homo sapiens, MIA PaCa-2, read-out: IC50 in cell proliferation assay, MIA PaCa-2 cell line): 1240 nM
IC50 (Homo sapiens, MKN-45, read-out: IC50 in cell proliferation assay, MKN45 cell line (MET amplification)): 3810 nM
IC50 (Homo sapiens, MOLM-13, read-out: IC50 in cell proliferation assay, MOLM-13 cell line (FLT3 ITD)): 1070 nM
IC50 (Homo sapiens, MOLT-4, read-out: IC50 in cell proliferation assay, MOLT-4 cell line): 1670 nM
IC50 (Homo sapiens, MV4-11, read-out: IC50 in cell proliferation assay, MV4-11 cell line (FLT3 ITD)): 2280 nM
IC50 (Homo sapiens, MeWo, read-out: IC50 in cell proliferation assay, MeWo cell line): 1000 nM
IC50 (Homo sapiens, NCCIT, read-out: IC50 in cell proliferation assay, NCC-IT cell line): 1040 nM

From publication PMC9516332 (Frontiers in Oncology, 2022)
